Results taken from PubChem BioAssay (NCI).
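Dose response: 5 concentrations. Exposure: 48 h. Format: 96-well plates. Endpoint: linear interpolation; highest concentration if not reached. GI50: concentration for 50% inhibition of growth. The concentration for full growth arrest is given as TGI.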

Columns and labels:
Assay in all cases: NCI-60 cell line screen, 48 h
[1] = tested on: 786-0 renal
[2] = tested on: A498 renal
[3] = tested on: A549 NSCLC
[4] = tested on: ACHN renal
[5] = tested on: BT-549 breast
[6] = tested on: CAKI-1 renal
[7] = tested on: CCRF-CEM leukemia
[8] = tested on: COLO 205 colon
[9] = tested on: DU-145 prostate
[10] = tested on: EKVX NSCLC
[11] = tested on: HCC-2998 colon
[12] = tested on: HCT-116 colon
[13] = tested on: HCT-15 colon
[14] = tested on: HL-60(TB) leukemia
[15] = tested on: HOP-62 NSCLC
[16] = tested on: HOP-92 NSCLC
[17] = tested on: HS 578T breast
[18] = tested on: HT29 colon
[19] = tested on: K-562 leukemia
[20] = tested on: KM12 colon
[21] = tested on: LOX IMVI melanoma
[22] = tested on: M14 melanoma
[23] = tested on: MALME-3M melanoma
[24] = tested on: MCF7 breast
[25] = tested on: MDA-MB-231 breast
[26] = tested on: MDA-MB-435
[27] = tested on: MOLT-4 leukemia
[28] = tested on: NCI-H226 lung
[29] = tested on: NCI-H23 lung
[30] = tested on: NCI-H460 lung
[31] = tested on: NCI-H522 lung
[32] = tested on: NCI/ADR-RES ovarian
[33] = tested on: OVCAR-3 ovarian
[34] = tested on: OVCAR-4 ovarian
[35] = tested on: OVCAR-5 ovarian
[36] = tested on: OVCAR-8 ovarian
[37] = tested on: PC-3 prostate
[38] = tested on: RPMI-8226 leukemia
[39] = tested on: RXF 393 renal
[40] = tested on: SF-268 CNS
[41] = tested on: SF-295 CNS
[42] = tested on: SF-539 CNS
[43] = tested on: SK-MEL-2 melanoma
[44] = tested on: SK-MEL-28 melanoma
[45] = tested on: SK-MEL-5 melanoma
[46] = tested on: SK-OV-3 ovarian
[47] = tested on: SN12C renal
[48] = tested on: SNB-19 CNS
[49] = tested on: SNB-75 CNS
[50] = tested on: SR leukemia
[51] = tested on: SW-620 colon
[52] = tested on: T-47D breast
[53] = tested on: TK-10 renal
[54] = tested on: U251 CNS
[55] = tested on: UACC-257 melanoma
[56] = tested on: UO-31 renal
[57] = tested on: IGROV1 ovarian
[58] = tested on: UACC-62 melanoma

CC[C@H](Nc1cc(C)nc(N)n1)c1nc2cccc(NCc3ccc(C(=O)NO)cc3)c2c(=O)n1-c1ccccc1
GI50 [1]: 1.85 µM | TGI [1]: 3.79 µM | GI50 [2]: 1.51 µM | TGI [2]: 3.33 µM | GI50 [3]: 3.79 µM | TGI [3]: 16.4 µM | GI50 [4]: 10.5 µM | TGI [4]: 22.7 µM | GI50 [5]: 2.44 µM | TGI [5]: 6.57 µM | GI50 [6]: 3.33 µM | TGI [6]: 14.2 µM | GI50 [7]: 1.62 µM | TGI [7]: 11.4 µM | GI50 [8]: 1.56 µM | TGI [8]: 3.79 µM | GI50 [9]: 2.99 µM | TGI [9]: 10.6 µM | GI50 [10]: 3.32 µM | TGI [10]: 12.2 µM | GI50 [11]: 1.82 µM | TGI [11]: 3.34 µM | GI50 [12]: 1.55 µM | TGI [12]: 3.72 µM | GI50 [13]: 10.4 µM | TGI [13]: 25.1 µM | GI50 [14]: 2.59 µM | TGI [14]: 6.1 µM | GI50 [15]: 2.05 µM | TGI [15]: 4.47 µM | GI50 [16]: 1.33 µM | TGI [16]: 3.54 µM | GI50 [17]: 2.36 µM | TGI [17]: 9.97 µM | GI50 [18]: 2.69 µM | TGI [18]: 10.4 µM | GI50 [19]: 2.56 µM | TGI [19]: 10 µM | GI50 [20]: 1.69 µM | TGI [20]: 3.31 µM | GI50 [21]: 1.78 µM | TGI [21]: 3.29 µM | GI50 [22]: 1.85 µM | TGI [22]: 3.88 µM | GI50 [23]: 1.39 µM | TGI [23]: 2.93 µM | GI50 [24]: 1.98 µM | TGI [24]: 6.39 µM | GI50 [25]: 1.62 µM | TGI [25]: 3.16 µM | GI50 [26]: 1.64 µM | TGI [26]: 3.12 µM | GI50 [27]: 2.52 µM | TGI [27]: 10.2 µM | GI50 [28]: 2.86 µM | TGI [28]: 14.9 µM | GI50 [29]: 2.01 µM | TGI [29]: 4.72 µM | GI50 [30]: 1.94 µM | TGI [30]: 5.68 µM | GI50 [31]: 1.06 µM | TGI [31]: 3.19 µM | GI50 [32]: 77.2 µM | TGI [32]: > 100 µM | GI50 [33]: 1.86 µM | TGI [33]: 4.39 µM | GI50 [34]: 1.61 µM | TGI [34]: 4.12 µM | GI50 [35]: 2.4 µM | TGI [35]: 7.59 µM | GI50 [36]: 2.04 µM | TGI [36]: 6.13 µM | GI50 [37]: 1.83 µM | TGI [37]: 4.41 µM | GI50 [38]: 2.08 µM | TGI [38]: 7.4 µM | GI50 [39]: 1.48 µM | TGI [39]: 2.9 µM | GI50 [40]: 1.82 µM | TGI [40]: 3.49 µM | GI50 [41]: 1.66 µM | TGI [41]: 3.48 µM | GI50 [42]: 1.67 µM | TGI [42]: 3.26 µM | GI50 [43]: 2.58 µM | TGI [43]: 7.37 µM | GI50 [44]: 1.83 µM | TGI [44]: 3.9 µM | GI50 [45]: 1.96 µM | TGI [45]: 4.41 µM | GI50 [46]: 2.52 µM | TGI [46]: 8.88 µM | GI50 [47]: 1.96 µM | TGI [47]: 4.72 µM | GI50 [48]: 1.83 µM | TGI [48]: 4.77 µM | GI50 [49]: 1.12 µM | TGI [49]: 3.5 µM | GI50 [50]: 0.679 µM | TGI [50]: 13 µM | GI50 [51]: 1.61 µM | TGI [51]: 4.19 µM | GI50 [52]: 1.54 µM | TGI [52]: 6.13 µM | GI50 [53]: 4.28 µM | TGI [53]: 16.9 µM | GI50 [54]: 1.47 µM | TGI [54]: 3.03 µM | GI50 [55]: 2.17 µM | TGI [55]: 7.41 µM | GI50 [56]: 10.2 µM | TGI [56]: 24.2 µM

CCOC(=O)Nc1nc2cc(OC)c(OC)c(OC)c2s1
GI50 [1]: 61.2 µM | TGI [1]: > 100 µM | GI50 [2]: 26.2 µM | TGI [2]: > 100 µM | GI50 [3]: > 100 µM | TGI [3]: > 100 µM | GI50 [4]: 46.9 µM | TGI [4]: > 100 µM | GI50 [5]: > 100 µM | TGI [5]: > 100 µM | GI50 [6]: > 100 µM | TGI [6]: > 100 µM | GI50 [7]: > 100 µM | TGI [7]: > 100 µM | GI50 [8]: > 100 µM | TGI [8]: > 100 µM | GI50 [9]: > 100 µM | TGI [9]: > 100 µM | GI50 [11]: > 100 µM | TGI [11]: > 100 µM | GI50 [12]: > 100 µM | TGI [12]: > 100 µM | GI50 [13]: > 100 µM | TGI [13]: > 100 µM | GI50 [14]: > 100 µM | TGI [14]: > 100 µM | GI50 [15]: 24.9 µM | TGI [15]: 95.6 µM | GI50 [16]: 15.8 µM | TGI [16]: 74.9 µM | GI50 [17]: 17.5 µM | TGI [17]: > 100 µM | GI50 [18]: > 100 µM | TGI [18]: > 100 µM | GI50 [57]: 91 µM | TGI [57]: > 100 µM | GI50 [19]: > 100 µM | TGI [19]: > 100 µM | GI50 [20]: > 100 µM | TGI [20]: > 100 µM | GI50 [21]: > 100 µM | TGI [21]: > 100 µM | GI50 [22]: > 100 µM | TGI [22]: > 100 µM | GI50 [23]: > 100 µM | TGI [23]: > 100 µM | GI50 [24]: > 100 µM | TGI [24]: > 100 µM | GI50 [25]: 31.5 µM | TGI [25]: > 100 µM | GI50 [26]: > 100 µM | TGI [26]: > 100 µM | GI50 [27]: > 100 µM | TGI [27]: > 100 µM | GI50 [28]: 73.7 µM | TGI [28]: > 100 µM | GI50 [29]: 28.5 µM | TGI [29]: > 100 µM | GI50 [30]: > 100 µM | TGI [30]: > 100 µM | GI50 [31]: > 100 µM | TGI [31]: > 100 µM | GI50 [32]: > 100 µM | TGI [32]: > 100 µM | GI50 [33]: 51.5 µM | TGI [33]: > 100 µM | GI50 [34]: > 100 µM | TGI [34]: > 100 µM | GI50 [35]: > 100 µM | TGI [35]: > 100 µM | GI50 [36]: > 100 µM | TGI [36]: > 100 µM | GI50 [37]: > 100 µM | TGI [37]: > 100 µM | GI50 [38]: > 100 µM | TGI [38]: > 100 µM | GI50 [39]: 49.4 µM | TGI [39]: > 100 µM | GI50 [40]: 50.4 µM | TGI [40]: > 100 µM | GI50 [41]: 41.4 µM | TGI [41]: > 100 µM | GI50 [42]: > 100 µM | TGI [42]: > 100 µM | GI50 [43]: 62.6 µM | TGI [43]: > 100 µM | GI50 [44]: > 100 µM | TGI [44]: > 100 µM | GI50 [45]: > 100 µM | TGI [45]: > 100 µM | GI50 [46]: 66.5 µM | TGI [46]: > 100 µM | GI50 [47]: > 100 µM | TGI [47]: > 100 µM | GI50 [48]: > 100 µM | TGI [48]: > 100 µM | GI50 [49]: 16.9 µM | TGI [49]: 64.6 µM | GI50 [50]: > 100 µM | TGI [50]: > 100 µM | GI50 [51]: > 100 µM | TGI [51]: > 100 µM | GI50 [52]: > 100 µM | TGI [52]: > 100 µM | GI50 [53]: 42.4 µM | TGI [53]: > 100 µM | GI50 [54]: 38.7 µM | TGI [54]: > 100 µM | GI50 [55]: > 100 µM | TGI [55]: > 100 µM | GI50 [58]: > 100 µM | TGI [58]: > 100 µM | GI50 [56]: 13.9 µM | TGI [56]: > 100 µM
